Entries after “also recorded” stand apart in the source; their conditions may differ.
Each molecule was assayed against protein kinase (assay: HTS ATP-utilizing enzyme assay, off-chip mobility-shift format (Caliper HTS 250)). Conditions: kinase(s) for which the compound exhibits protein kinase inhibitory activity; test compound 10 μM; active = greater than three-sigma from the mean activity of inactive compounds.
Assay type: biochemical, human
Excerpt: The following procedures describe the reagent and plate preparation for a HTS of an ATP-utilizing enzyme, such as a protein kinase, run in an off-chip mobility-shift assay format. The following provides an HTS protocol for running a protein kinase HTS screen on a Caliper HTS 250 microfluidics system. The following parameters are dependent on the protein kinase used and can be determined by one skilled in the art as part of a typical assay development process. For example, the peptide substrate used can be identified from the current literature, by screening a peptide library of potential protein kinase substrates, or by other applicable means accepted in the field.
The following table provides typical screen assay parameters appropriate for a Caliper HTS 250 microfluidics system.
The reagents and buffers listed in the following table are generally applicable for developing and running an HTS screen on a human protein kinase using the Caliper HTS 250 system.
The following reagents were prepared using the previously described buffers.
A 2× Master Buffer solution was prepared by combining 200 mL of 1 M HEPES, pH 7.5, 2 mL of 10% Triton X-100, 20 mL of 10% BSA, and 778 mL of H2O.
Assays to determine the kinase inhibitory activity of chemical entities of the present disclosure were performed using a Caliper HTS 250 microfluidics device, Greiner U-bottom assay plates, a Multidrop for transfer of reagents, and Biomek FX (AMNCBM03) software. Initially, 2.4 μL of a 1 mM solution of a test compound in 100% DMSO was added to a well of the Greiner U-bottom plate. A single Greiner U-bottom plate having 24×16 wells could include multiple test compounds. […] Using the Biomek FX, 10 μL of 0.5 M EDTA was added by the span-8 to wells, indicated as 100% Control and 2.4 μL of 100% DMSO was added by the span-8 to wells, indicated as 0% Control. […] The total reaction volume in each well was 25 μL, and the concentration of the test compound was 10 μM. The assay plate was incubated for 2.5 hrs at 20° C. to 22° C. […] The inhibition of the ATP-utilizing enzyme, such as a particular protein kinase, was determined by measuring the ratio of the peptide substrate to phosphorylated product for each well of the assay plate using the Caliper HTS 250 system.
The use of three-sigma statistical limits represents a conservative method for declaring potential hits among targets. The three-sigma activity, as well as the mean population activity, can be different for each target enzyme.
In the case of `Cc1cccc(OCc2nnc(SCC(=O)N3CCCc4ccccc43)n2Cc2ccco2)c1C`, the Kinase is reported as “AKT1”. `Cc1cc(NC(=O)CSc2nnc(-c3cccnc3)n2-c2ccc(F)cc2)no1` was tested, and the Kinase was “FYN”. `COc1ccc(-n2c(SCC(=O)N3CCC(C)CC3)nnc2-c2ccccc2)cc1` was tested, and the Kinase was “DAPK1”. In the case of `O=C(CSc1nnc(-c2ccc(O)cc2)n1Cc1ccco1)N1c2ccccc2Sc2ccccc21`, the Kinase is reported as “GSK3-β and GSK3-α and MSK2”. With `O=C(CSc1nnc(-c2ccncc2)n1Cc1ccco1)Nc1ccccc1` the Kinase was “SRC and GSK3-α and AKT3”. For `O=C(CSc1nnc(-c2ccccc2O)n1Cc1ccccc1)Nc1cccc(I)c1`, the Kinase was “SYK”. For `CNC(=O)CSc1nnc(COc2ccccc2)n1Cc1ccccc1`, the Kinase was “FYN”. In the case of `CCn1c(SCC(=O)N2CCOCC2)nnc1-c1ccc(S(=O)(=O)N2CCCCC2)cc1`, the Kinase is reported as “PAK2”. For `CCn1c(CNc2ccc(OC)cc2)nnc1SCC(=O)Nc1ccccc1C(F)(F)F`, the Kinase was “FYN and PDGFRR-α and FLT-3”. For `Cc1csc(NC(=O)CSc2nnc(-c3cccnc3)n2C)n1`, the Kinase was “PAK2”. With `COc1ccccc1-n1c(SCC(N)=O)nnc1-c1ccccc1O` the Kinase was “AURORA-A”. In the case of `CCN(CC)S(=O)(=O)c1ccc(-c2nnc(SCC(=O)Nc3nccs3)n2CC)cc1`, the Kinase is reported as “GSK3-α; also recorded: GSK3-β”. `COc1ccc(C)cc1NC(=O)CSc1nnc(-c2ccc(Br)cc2)n1-c1ccccc1` was tested, and the Kinase was “SYK”. `Cn1c(SCC(=O)Nc2cccc(C(F)(F)F)c2)nnc1-c1ccc(O)cc1` was tested, and the Kinase was “GSK3-β and SRC and GSK3-α”. For `Cc1ccc(NC(=O)CSc2nnc(-c3ccc(O)cc3)n2C)cc1`, the Kinase was “GSK3-β; also recorded: GSK3-α”. In the case of `COCCCn1c(SCC(=O)N2CCCCC2)nnc1-c1ccc(C(C)(C)C)cc1`, the Kinase is reported as “CDK5”. In the case of `Cn1c(SCC(=O)N(CC(=O)NC2CCCCC2)C2CCCC2)nnc1-c1ccc(C(C)(C)C)cc1`, the Kinase is reported as “DAPK1”. In the case of `COc1ccc(-n2c(CNc3ccccc3Cl)nnc2SCC(=O)Nc2ccc([N+](=O)[O-])cc2)cc1`, the Kinase is reported as “CHEK2”. For `Cc1ccc(NCc2nnc(SCC(=O)Nc3cccc(O)c3)n2Cc2ccco2)c(C)c1`, the Kinase was “CHEK2”. With `CCn1c(CNc2cccc(Cl)c2)nnc1SCC(=O)NCc1ccco1` the Kinase was “PAK2”. With `NC(=O)CSc1nnc(CNc2cccc(Cl)c2)n1CCc1ccccc1` the Kinase was “CDK2-cyclinA and CDK1 and AURORA-A”. `CCc1cccc(C)c1NC(=O)CSc1nnc(CNc2ccc(Cl)cc2)n1CC` was tested, and the Kinase was “LCK”. In the case of `Cc1cccc(C)c1NC(=O)C(C)Sc1nnc(CNc2ccc(Cl)cc2)n1-c1ccccc1` (stereo not drawn), the Kinase is reported as “CDK2-cyclinE”. For `Cc1ccc(-n2c(CNc3ccc(F)cc3)nnc2SCC(=O)Nc2ccccc2C(F)(F)F)cc1`, the Kinase was “AKT1”. In the case of `NC(=O)CSc1nnc(CNc2ccc(F)cc2)n1-c1ccccc1`, the Kinase is reported as “FLT-3”. In the case of `COc1ccc(OCc2nnc(SCC(=O)Nc3ccccc3OC)n2C)cc1`, the Kinase is reported as “PDGFRR-α and PKA”. In the case of `COc1ccc(NCc2nnc(SCC(=O)Nc3ccccc3C)n2C)cc1`, the Kinase is reported as “INSR and CHEK1 and FYN”. With `COc1ccc(NCc2nnc(SCC(=O)Nc3cccc(C(F)(F)F)c3)n2C)cc1` the Kinase was “PDGFRR-α and FYN and FLT-3”. In the case of `COc1ccc(NCc2nnc(SCC(=O)Nc3ccccc3)n2-c2ccc(C)cc2)cc1`, the Kinase is reported as “FYN and PDGFRR-α and FLT-3”. `COc1ccc(NCc2nnc(SCC(=O)Nc3ccccc3C(F)(F)F)n2-c2ccccc2)cc1` was tested, and the Kinase was “PDGFRR-α”. In the case of `Cc1cc(C)nc(SCc2nnc(SCC(=O)Nc3ccccc3)n2-c2ccccc2)n1`, the Kinase is reported as “MAPKAPK-2”. In the case of `CCn1c(CNc2ccc(C)cc2)nnc1SCC(=O)Nc1cccc(Cl)c1`, the Kinase is reported as “CHEK2”. `Cc1ccc(NCc2nnc(SCC(=O)N3c4ccccc4Sc4ccccc43)n2C)cc1` was tested, and the Kinase was “DAPK1”. For `Cc1ccc(NCc2nnc(SCC(=O)Nc3ccc(C)cc3Br)n2-c2ccccc2)cc1`, the Kinase was “AURORA-A”. With `COc1ccc(-n2c(Cc3ccccc3)nnc2SCC(=O)Nc2ccccc2)cc1` the Kinase was “CHEK2”. In the case of `COc1ccccc1-n1c(SCC(=O)Nc2cccc(C(=O)O)c2)nnc1-c1ccccc1O`, the Kinase is reported as “AURORA-A”. With `COc1ccc(NCc2nnc(S)n2-c2cccc(Cl)c2)cc1` the Kinase was “PDGFRR-α and AURORA-A and FYN”. For `COc1ccc(-n2c(S)nnc2COc2ccc3ccccc3c2)cc1`, the Kinase was “GSK3-α and CDK1”. In the case of `Cc1ccc(S(=O)(=O)Nc2ccc(-c3nnc(SCC(=O)N4CCCCC4)n3C)cc2)cc1`, the Kinase is reported as “AKT1”. With `Cc1ccc(-n2c(C)nnc2SCc2nnc(S)n2-c2ccccc2)cc1` the Kinase was “PDGFRR-α”. In the case of `COc1ccc(OCc2nnc(SCC(=O)Nc3ccc(C)cc3Br)n2-c2ccccc2)cc1`, the Kinase is reported as “CDK1”. In the case of `COc1ccc(NCc2nnc(SCC(=O)Nc3ccc(C)cc3Br)n2C)cc1`, the Kinase is reported as “FYN and PDGFRR-α and FLT-3”. For `CCOc1ccc(NCc2nnc(SCC(=O)Nc3ccccc3Br)n2-c2ccccc2)cc1`, the Kinase was “PDGFRR-α and FYN and FLT-3”. For `Cc1cccc(NC(=O)CSc2nnc(-c3ccc(O)cc3)n2-c2ccccc2)c1C`, the Kinase was “MSK2”. For `COc1ccc(NC(=O)CSc2nnc(-c3ccccc3O)n2-c2ccccc2)c(OC)c1`, the Kinase was “CDK1”. `COCCCn1c(SCC(=O)Nc2c(C)cccc2C)nnc1-c1ccncc1` was tested, and the Kinase was “FYN”. `COc1ccc(NCc2nnc(SCC(=O)Nc3cccc(C(C)=O)c3)n2-c2ccc(Cl)cc2)cc1` was tested, and the Kinase was “PDGFRR-α and FYN and FLT-3”. With `COc1ccc(-n2c(CNc3ccccc3Cl)nnc2SCC(=O)Nc2cccc(C(C)=O)c2)cc1` the Kinase was “CHEK2”. With `CCn1c(COc2ccccc2)nnc1SCC(=O)Nc1sc2c(c1C#N)CCCC2` the Kinase was “AKT1”. `Cc1cc(NC(=O)CSc2nnc(-c3ccc(O)cc3)n2C)ccc1NC(=O)c1ccccc1C` was tested, and the Kinase was “GSK3-β; also recorded: GSK3-α”. With `COc1ccc(-n2c(S)nnc2-c2ccc(NS(=O)(=O)c3ccc(C)cc3)cc2)cc1` the Kinase was “GSK3-β; also recorded: GSK3-α; also recorded: AURORA-A”. For `COc1ccc(NCc2nnc(SCC(=O)Nc3ccc(C(C)=O)cc3)n2-c2ccc(OC)cc2)cc1`, the Kinase was “PDGFRR-α and FYN and c-TAK1”. In the case of `CCn1c(CNc2cccc(Cl)c2)nnc1SCC(=O)Nc1ccc(C(C)=O)cc1`, the Kinase is reported as “CDK1”. With `COc1ccc(NCc2nnc(SCC(=O)Nc3ccc(C(C)=O)cc3)n2C)cc1` the Kinase was “PDGFRR-α and FLT-3 and FYN”. With `COc1ccc(NCc2nnc(SCC(=O)Nc3ccc(Br)cc3)n2C)cc1` the Kinase was “PDGFRR-α and FYN and AURORA-A”. With `CCC(=O)Nc1cc(NC(=O)CSc2nnc(-c3ccc(O)cc3)n2CC)ccc1C` the Kinase was “SGK1”. In the case of `CCOc1ccc2nc(NC(=O)CSc3nnc(-c4ccncc4)n3CCCOC)sc2c1`, the Kinase is reported as “GSK3-β; also recorded: PDGFRR-α; also recorded: GSK3-α”. In the case of `CCn1c(SCC(=O)Nc2nc3ccccc3s2)nnc1-c1cccnc1`, the Kinase is reported as “GSK3-β; also recorded: GSK3-α; also recorded: CDK2-cyclinE”. `Cn1c(SCC(=O)Nc2nc3ccccc3s2)nnc1-c1ccco1` was tested, and the Kinase was “GSK3-α”. In the case of `CCn1c(CNc2ccc(OC)cc2)nnc1SCC(=O)Nc1ccccc1-c1ccccc1`, the Kinase is reported as “PDGFRR-α and FYN and GSK3-β”. `COc1ccc(NCc2nnc(SCC(=O)Nc3cccc(-c4ccccc4)c3)n2C)cc1` was tested, and the Kinase was “PDGFRR-α and FYN and CHEK2”. With `O=C(CSc1nnc(COc2cccc3cccnc23)n1-c1ccccc1)Nc1ccccc1` the Kinase was “SGK1 and CDK1”. `CCOC(=O)CN(C(=O)CSc1nnc(-c2ccccc2)n1-c1ccccc1OC)c1cccc([N+](=O)[O-])c1` was tested, and the Kinase was “GSK3-α”. For `CCOC(=O)CN(C(=O)CSc1nnc(-c2ccncc2)n1CCCN(C)C)c1cccc([N+](=O)[O-])c1`, the Kinase was “CDK1”. `CCOC(=O)CN(C(=O)CSc1nnc(-c2ccccc2O)n1CCc1ccccc1)c1cccc([N+](=O)[O-])c1` was tested, and the Kinase was “AURORA-A”. In the case of `CCOC(=O)c1c(NC(=O)CSc2nnc(-c3ccccc3O)n2CCc2ccccc2)sc(C)c1C`, the Kinase is reported as “CDK2-cyclinA”. For `CCOC(=O)c1sc(NC(=O)CSc2nnc(-c3ccc(O)cc3)n2CC2CCCO2)nc1C` (stereo not drawn), the Kinase was “GSK3-β; also recorded: GSK3-α”. `CCOC(=O)c1c(NC(=O)CSc2nnc(CNc3ccc(OC)cc3)n2C)sc(C)c1C` was tested, and the Kinase was “PDGFRR-α; also recorded: FLT-3; also recorded: AURORA-A”. For `CCOC(=O)c1cccc(NC(=O)CSc2nnc(CNc3ccc(OC)cc3)n2-c2ccc(OC)cc2)c1`, the Kinase was “AURORA-A; also recorded: PDGFRR-α; also recorded: CHEK2”. In the case of `CCOC(=O)c1ccc(NC(=O)CSc2nnc(-c3ccc(O)cc3)n2C)cc1`, the Kinase is reported as “GSK3-β; also recorded: AURORA-A; also recorded: GSK3-α”. For `CCOC(=O)c1ccc(NC(=O)CSc2nnc(CNc3ccc(C)cc3)n2CC)cc1`, the Kinase was “CHEK2”. For `CCn1c(CNc2cccc(Cl)c2)nnc1SCC(=O)Nc1ccccc1C(=O)OC`, the Kinase was “AURORA-A”. In the case of `COC(=O)c1ccccc1NC(=O)CSc1nnc(CNc2ccc(OC)cc2)n1-c1ccc(C)cc1`, the Kinase is reported as “PDGFRR-α and AURORA-A and FYN”. With `COC(=O)c1sc(NC(=O)CSc2nnc(-c3ccco3)n2C)nc1C` the Kinase was “GSK3-β; also recorded: GSK3-α”. In the case of `COC(=O)c1ccc(NC(=O)CSc2nnc(-c3ccccc3O)n2-c2ccccc2OC)cc1`, the Kinase is reported as “AURORA-A”.

— patent US20050288347A1, “Certain triazole-based compounds, compositions, and uses thereof” (priority 2004, published 2005)
